Laboratory results from ChEMBL document CHEMBL1201862, “PubChem BioAssay data set” (2004).
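Cultured in 96-well plates, cells were exposed to test compound for 48 hours across five concentrations. GI50 = concentration required for 50% inhibition of growth.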 Calls of active or inactive are those of the source. No stated cut-off is given here; in the data, active = GI50 up to about 1.1 µM and inactive = higher.

Experiments:
Test in all cases: DTP human tumour cell line panel, 48 h
[1] = tested on: A549
[2] = tested on: HCT-15
[3] = tested on: RPMI-8226
[4] = tested on: NCI-H226
[5] = tested on: OVCAR-5
[6] = tested on: CCRF-CEM
[7] = tested on: COLO 205
[8] = tested on: SNB-19
[9] = tested on: SK-MEL-5
[10] = tested on: M14
[11] = tested on: MCF7
[12] = tested on: OVCAR-3
[13] = tested on: SK-MEL-28
[14] = tested on: UO-31
[15] = tested on: TK-10
[16] = tested on: K562
[17] = tested on: ACHN
[18] = tested on: NCI-H23
[19] = tested on: RXF 393
[20] = tested on: SF-539
[21] = tested on: LOX IMVI
[22] = tested on: KM12
[23] = tested on: CAKI-1
[24] = tested on: IGROV-1
[25] = tested on: NCI-H522
[26] = tested on: SF-268
[27] = tested on: EKVX
[28] = tested on: MDA-MB-435
[29] = tested on: HCC 2998
[30] = tested on: Hs-578T
[31] = tested on: Malme-3M
[32] = tested on: MDA-N
[33] = tested on: NCI-H460
[34] = tested on: HCT-116
[35] = tested on: SN12C
[36] = tested on: SF-295
[37] = tested on: SNB-75
[38] = tested on: UACC-62
[39] = tested on: T47D
[40] = tested on: MOLT-4
[41] = tested on: HT-29
[42] = tested on: SK-OV-3
[43] = tested on: MDA-MB-231
[44] = tested on: OVCAR-4
[45] = tested on: BT-549
[46] = tested on: OVCAR-8
[47] = tested on: 786-0
[48] = tested on: SW-620
[49] = tested on: SK-MEL-2
[50] = tested on: UACC-257
[51] = tested on: U-251
[52] = tested on: SR
[53] = tested on: NCI/ADR-RES
[54] = tested on: HOP-62
[55] = tested on: PC-3

Cc1ccc2c(c1)nc1n2C(c2c(F)cccc2F)SC1 (stereo not given)
GI50 [1]: 28.8 µM (inactive) | GI50 [2]: 27.9 µM | GI50 [3]: 34.4 µM (inactive) | GI50 [4]: 29 µM (inactive) | GI50 [5]: 57.4 µM (inactive) | GI50 [6]: 21 µM (inactive) | GI50 [7]: 32.3 µM (inactive) | GI50 [8]: 64.1 µM (inactive) | GI50 [9]: > 10 µM (inactive) | GI50 [10]: 51.1 µM (inactive) | GI50 [11]: 41.7 µM (inactive) | GI50 [12]: 55.8 µM (inactive) | GI50 [13]: 41 µM (inactive) | GI50 [14]: 26.9 µM (inactive) | GI50 [15]: 81.1 µM (inactive) | GI50 [16]: 22.3 µM (inactive) | GI50 [17]: 35.2 µM (inactive) | GI50 [18]: 41.5 µM (inactive) | GI50 [19]: 27 µM (inactive) | GI50 [20]: 24.3 µM (inactive) | GI50 [21]: 33.5 µM (inactive) | GI50 [22]: 34.4 µM (inactive) | GI50 [23]: 27.9 µM (inactive) | GI50 [24]: 50.6 µM (inactive) | GI50 [25]: 31.5 µM (inactive) | GI50 [26]: 44.5 µM (inactive) | GI50 [27]: 30.8 µM (inactive) | GI50 [28]: 29.6 µM (inactive) | GI50 [29]: 32.1 µM (inactive) | GI50 [30]: 15.7 µM (inactive) | GI50 [31]: 18.9 µM (inactive) | GI50 [32]: 49.8 µM (inactive) | GI50 [33]: 52.8 µM (inactive) | GI50 [34]: 28.4 µM (inactive) | GI50 [35]: 39.4 µM (inactive) | GI50 [36]: 35.1 µM (inactive) | GI50 [37]: 8.51 µM (inactive) | GI50 [38]: > 10 µM (inactive) | GI50 [39]: 41.6 µM (inactive) | GI50 [40]: 14.1 µM (inactive) | GI50 [41]: 28.8 µM (inactive) | GI50 [42]: 52.6 µM (inactive) | GI50 [43]: 41 µM (inactive) | GI50 [44]: > 100 µM (inactive) | GI50 [45]: > 10 µM (inactive) | GI50 [46]: 39.5 µM (inactive) | GI50 [47]: 32 µM (inactive) | GI50 [48]: 31.9 µM (inactive) | GI50 [49]: 20 µM (inactive) | GI50 [50]: 56.8 µM (inactive) | GI50 [51]: 39.8 µM (inactive) | GI50 [52]: 24.4 µM (inactive) | GI50 [53]: 31.8 µM (inactive) | GI50 [54]: 57 µM (inactive) | GI50 [55]: 20.7 µM (inactive)
